From patent publication US11236055B2 (Venenum Biodesign, LLC, priority 2016, dated 2022)

How the values were obtained:
human TGR5 receptor = target: T1, human TGR5 receptor (Homo sapiens, UniProt Q8TDU6); assay: Human TGR5 cAMP production assay; type: cell-based; settings: human TGR5, luminescent cAMP assay; coded A-D; read-out: Human TGR5 Lum. cAMP Activity (EC50)
T1 construct: host or cells: CHO-K1 (hTGR5-CHO cells)
T1 sequence (Q8TDU6 1-330): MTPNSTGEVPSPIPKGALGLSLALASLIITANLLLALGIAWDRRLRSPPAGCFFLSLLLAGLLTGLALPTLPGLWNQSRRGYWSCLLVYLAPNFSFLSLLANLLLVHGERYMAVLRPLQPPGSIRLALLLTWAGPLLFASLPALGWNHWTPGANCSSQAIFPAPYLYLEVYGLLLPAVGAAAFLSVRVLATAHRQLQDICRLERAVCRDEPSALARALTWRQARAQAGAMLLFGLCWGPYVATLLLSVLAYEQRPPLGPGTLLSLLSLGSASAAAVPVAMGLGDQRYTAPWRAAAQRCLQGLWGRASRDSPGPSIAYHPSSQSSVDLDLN
Method in brief: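 Intracellular cAMP read by luminescent enzyme-complementation (XS+) after overnight development, following 1 h room-temperature compound treatment of hTGR5-CHO-K1 cells in IBMX plus anti-cAMP antibody. Compounds tested as half-log dilution series; EC50 derived.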

mouse TGR5 receptor [1] = target: T2, mouse TGR5 receptor (Mus musculus, UniProt Q80SS6); assay: Mouse TGR5 cAMP production assay (luminescent, DiscoveRx cAMP XS+); type: cell-based; settings: HEK293-EBNA cells overexpressing mouse TGR5, luminescent cAMP XS+; coded A-D; read-out: Mouse TGR5 Lum. cAMP Activity (EC50)
T2 construct: expressed in transfected cells; host or cells: HEK293-EBNA (293 c18, ATCC CRL10852), Hygromycin B selection
T2 sequence (Q80SS6 1-329): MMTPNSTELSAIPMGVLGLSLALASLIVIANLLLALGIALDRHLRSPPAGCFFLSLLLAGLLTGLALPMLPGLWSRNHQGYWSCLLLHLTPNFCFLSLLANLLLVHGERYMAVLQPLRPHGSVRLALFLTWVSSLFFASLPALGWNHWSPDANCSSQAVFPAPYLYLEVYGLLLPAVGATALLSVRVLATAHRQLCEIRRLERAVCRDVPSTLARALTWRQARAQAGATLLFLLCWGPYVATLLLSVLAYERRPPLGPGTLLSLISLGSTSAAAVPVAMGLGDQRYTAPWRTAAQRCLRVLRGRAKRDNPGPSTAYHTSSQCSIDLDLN
Excerpt: Mouse TGR5 cAMP Production Assay
We evaluated compounds of the present invention for their ability to induce cAMP production in HEK-EBNA cells overexpressing the mouse TGR5 receptor. Human embryonic kidney cells (HEK293-EBNA) stably expressing mouse TGR5 receptor were established using the following procedure. Specifically, a commercially-obtained gene encoding mouse TGR5 (accession number BC116914) from Thermo Scientific (Waltham, Mass.) was cloned into an episomal expression vector. The resulting expression plasmid was then transfected into 293 c18 (ATCC® CRL10852™) cells, which express the Epstein-Barr virus nuclear antigen EBNA1 and can support the replication of episomal vectors. Selection for the plasmid was maintained with Hygromycin B. Cells were cultured and maintained in DMEM (Sigma; cat #6429) supplemented with 10% Fetal Bovine Serum, 1% penicillin/streptomycin, 2 mM L-alanine L-glutamine (GlutaMax), and 250 μg/mL Hygromycin.
Two cAMP production assays were developed.
1. Luminescent cAMP Production Assay
In this first cAMP production assay, the cAMP production was measured using DiscoveRx's cAMP XS+ kit following the manufacturer's recommended protocol.
Briefly, HEK293-EBNA cells stably overexpressing mouse TGR5 were harvested using non-enzymatic cell dissociation buffer (Sigma-Aldrich, St. Louis, Mo.), spun down, then resuspended in serum-free DMEM with 500 μM IBMX at a density of 1.25×10^6 cells/mL. 500 μL of cAMP antibody solution was added to […] of cell suspension and incubated at room temperature for 20 min.
Test compounds were serially diluted (half-log dilutions) in DMSO and then further diluted 1:50 in PBS, 10 mM HEPES buffer. 2 μL of serially diluted compound was added to a 384-well low volume plate (Greiner cat #784075) and centrifuged briefly. 2 μL of the cell/cAMP antibody mixture was then added to each compound-containing well and allowed to incubate at room temperature for one (1) hour. Following incubation, the XS+ kits' ED/Lysis/CL Substrate Working Solution was prepared following the manufacturer's recommended protocol and 4 μL was added to each well of the plate. The plate was then incubated for one (1) hour at room temperature. Following incubation, 4 μL of (Enzyme Acceptor) EA reagent was added to the plate and allowed to incubate overnight at room temperature. Luminescent signal was then detected using the Viewlux instrument (Perkin-Elmer, Waltham, Mass.).
In Table 33, EC50 values for both human and mouse cells were determined according to the TGR5 cAMP assays described above.

mouse TGR5 receptor [2] = target: T2, mouse TGR5 receptor; assay: Mouse TGR5 cAMP production assay (HTRF, Cisbio cAMP HiRange); type: cell-based; settings: HEK293-EBNA cells overexpressing mouse TGR5, HTRF cAMP HiRange; coded A-D
Method in brief: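 cAMP read by HTRF competition after 1 h room-temperature compound exposure of mouse TGR5-overexpressing HEK293-EBNA cells. Cells were suspended in serum-free DMEM containing 500 μM IBMX; compounds ran as 12-point half-log dilutions in duplicate; EC50 derived.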

[3] = Pharmacokinetic profile in mice; type: in vivo; settings: mouse; fasted male Hilltop mice, 10 mg/kg oral gavage, plasma, mean of three mice
Protocol: Pharmacokinetic Profile in Mice
In this series of studies, the pharmacokinetic profile characteristics of compounds of the present invention were evaluated. The plasma concentration levels of the compounds were monitored in the blood stream (i.e., plasma) after oral gavage using Cmax, and area under the curve (AUC).
8 week old male Hilltop mice were fasted overnight. Animals were randomized into groups (n=9) by body weight. Mice were dosed with 10 mg/kg compound (in 20% PEG400/80% 0.5% carboxymethylcellulose (medium viscosity)+0.25% Tween-80) at a volume of 10 mL/kg through oral gavage. Blood was collected via orbital bleeding at 0, 0.25, 0.5, 1, 2, and 4 h post-dose, with no one mouse having more than 3 blood draws. Blood was collected in EDTA coated tubes. Samples were stored at −20° C. until analysis.
Quantitation of compound levels in plasma was accomplished by LC-MS/MS analysis. Standard curve and quality control samples were prepared in male CD-1 mouse plasma containing EDTA K^2+ as an anticoagulant at final concentrations ranging from 500 to 0.1 ng/mL. The plasma samples, calibration curve standards, and quality control samples were prepared in an identical method in a 96-well deep plate (1 mL) with a quenching solution (1:1 mixed acetonitrile:methanol containing the internal standard Reserpine @ 400 ng/mL). Low volume samples were supplemented with CD-1 mouse plasma. The plate was mixed on multi-tube votex for 1 min and centrifuged at 4000 rpm for 30 min at 4° C. (Sorvall® Super T21) before LC-MS/MS analysis. LC conditions were developed and optimized based on each compound as needed. The outlet of the column was coupled to AB Sciex 4000 QTrap Mass Spectrometer (AB Sciex, Brugg Switzerland). Detection was carried out using multiple reaction monitoring mode with positive-ion detection focusing. The pharmacokinetic parameters were derived from the plasma-time data and calculated using the standard non-compartmental method with WinNonlin (Pharsight, Mountain View, Calif.) or PK Solver (Comp. Meth. Prog. Biomed. (2010), 99, 306-314).
Values reported are the mean plasma concentration of three mice.

Q: What does the source list for `Cc1cncc(C)c1-c1cccc(C(C)(C)NS(=O)(=O)c2cccc(C(F)(F)F)c2)c1` [Compound 5AD, N-(2-(3-(3,5-dimethylpyridin-4-yl)phenyl)propan-2-yl)-3-(trifluoromethyl)benzenesulfonamide]?
A: EC50 (human TGR5 receptor): 1000 to 30000 nM; EC50 (mouse TGR5 receptor [1]): 1000 to 30000 nM

Q: For `Cc1cnccc1-c1cccc([C@H](C)NS(=O)(=O)c2cccc(C(F)(F)F)c2)c1` [Compound 5AG, (S)-N-(1-(3-(3-methylpyridin-4-yl)phenyl)ethyl)-3-(trifluoromethyl)benzenesulfonamide], which EC50 (human TGR5 receptor) is on record?
A: The EC50 was < 100 nM.

Q: What about the EC50 (mouse TGR5 receptor [1]) of the same compound?
A: Its EC50 is 100 to 999 nM.

Q: Which EC50 (human TGR5 receptor) does the source give for `Cc1cnccc1-c1cccc([C@@H](C)NS(=O)(=O)c2cccc(C(F)(F)F)c2)c1` [Compound 5AH, (R)-N-(1-(3-(3-methylpyridin-4-yl)phenyl)ethyl)-3-(trifluoromethyl)benzenesulfonamide] here?
A: The EC50 was < 100 nM.

Q: What about the EC50 (mouse TGR5 receptor [1]) of the same compound?
A: Its EC50 is 100 to 999 nM.

Q: Which EC50 (human TGR5 receptor) does the source give for `Cc1cnccc1-c1cccc(C(C)(C)NS(=O)(=O)c2ccccc2C(F)(F)F)c1` [Compound 5AI, N-(2-(3-(3-methylpyridin-4-yl)phenyl)propan-2-yl)-2-(trifluoromethyl)benzenesulfonamide] here?
A: Its EC50 is < 100 nM.

Q: And the EC50 (mouse TGR5 receptor [1])?
A: The EC50 was 100 to 999 nM.

Q: With `CNC(=O)C[C@H](NS(=O)(=O)c1ccccc1C(F)(F)F)c1cccc(-c2ccncc2C)c1` [Compound 5AZ, (S)-N-methyl-3-(3-(3-methylpyridin-4-yl)phenyl)-3-(2-(trifluoromethyl)phenylsulfonamido)propanamide] as the compound, how does the EC50 (human TGR5 receptor) read?
A: Its EC50 is 100 to 999 nM.

Q: And the EC50 (mouse TGR5 receptor [2])?
A: The EC50 was 100 to 999 nM.

Q: What about the Cmax [3] of the same compound?
A: Its Cmax is 2330 ng/mL.

Q: Which results are given for `COCCOc1cnccc1-c1cccc(C(C)(C)NS(=O)(=O)c2cccc(C(F)(F)F)c2)c1` [Compound 8, N-(2-(3-(3-(2-methoxyethoxy)pyridin-4-yl)phenyl)propan-2-yl)-3-(trifluoromethyl)benzenesulfonamide]?
A: EC50 (human TGR5 receptor): 100 to 999 nM; EC50 (mouse TGR5 receptor [1]): 1000 to 30000 nM

Q: What does the source list for `CC(C)Oc1cnccc1-c1cccc(C(C)(C)NS(=O)(=O)c2cccc(C(F)(F)F)c2)c1` [Compound 8AA, N-(2-(3-(3-isopropoxypyridin-4-yl)phenyl)propan-2-yl)-3-(trifluoromethyl)benzenesulfonamide]?
A: EC50 (human TGR5 receptor): 100 to 999 nM; EC50 (mouse TGR5 receptor [1]): 100 to 999 nM

Q: What does the source list for `CCOc1cnccc1-c1cccc(C(C)(C)NS(=O)(=O)c2cccc(C(F)(F)F)c2)c1` [Compound 8AB, N-(2-(3-(3-ethoxypyridin-4-yl)phenyl)propan-2-yl)-3-(trifluoromethyl)benzenesulfonamide]?
A: EC50 (human TGR5 receptor): < 100 nM; EC50 (mouse TGR5 receptor [1]): 100 to 999 nM

Q: What does the source list for `Cc1cnccc1-c1cccc(C(C)(C)N(CCCC(=O)NCCS(N)(=O)=O)S(=O)(=O)c2cccc(Cl)c2C)c1` [Compound 20AE, 4-(3-chloro-2-methyl-N-(2-(3-(3-methylpyridin-4-yl)phenyl)propan-2-yl)phenylsulfonamido)-N-(2-sulfamoylethyl)butanamide]?
A: EC50 (human TGR5 receptor): < 100 nM; EC50 (mouse TGR5 receptor [2]): < 100 nM; Cmax [3]: 128 ng/mL

Q: Which EC50 (human TGR5 receptor) does the source give for `Cc1cnccc1-c1cccc(C(C)(C)N(CCCC(=O)NCCS(=O)(=O)O)S(=O)(=O)c2cccc(Cl)c2C)c1` [Compound 20AG, 2-(4-(3-chloro-2-methyl-N-(2-(3-(3-methylpyridin-4-yl)phenyl)propan-2-yl)phenylsulfonamido)butanamido)ethanesulfonic acid] here?
A: Its EC50 is < 100 nM.

Q: What about the EC50 (mouse TGR5 receptor [2]) of the same compound?
A: Its EC50 is < 100 nM.

Q: What about the Cmax [3] of the same compound?
A: The Cmax was 1.4 ng/mL.

Q: Which EC50 (human TGR5 receptor) does the source give for `CCc1cnccc1-c1cccc([C@H](C)N(CCCCC(=O)NCCS(=O)(=O)O)S(=O)(=O)c2cccc(Cl)c2C)c1` [Compound 20AS, (S)-2-(5-(3-chloro-N-(1-(3-(3-ethylpyridin-4-yl)phenyl)ethyl)-2-methylphenylsulfonamido)pentanamido)ethanesulfonic acid] here?
A: The EC50 was < 100 nM.

Q: What about the EC50 (mouse TGR5 receptor [2]) of the same compound?
A: The EC50 was < 100 nM.

Q: What about the Cmax [3] of the same compound?
A: Its Cmax is 2.3 ng/mL.

Q: With `Cc1cnccc1-c1cccc(C2(N(CCCC(=O)NCCS(=O)(=O)O)S(=O)(=O)c3cccc(Cl)c3C)COC2)c1` [Compound 20BN, 2-(4-(3-chloro-2-methyl-N-(3-(3-(3-methylpyridin-4-yl)phenyl)oxetan-3-yl)phenylsulfonamido)butanamido)ethanesulfonic acid] as the compound, how does the EC50 (human TGR5 receptor) read?
A: Its EC50 is < 100 nM.

Q: What about the EC50 (mouse TGR5 receptor [2]) of the same compound?
A: The EC50 was 100 to 999 nM.

Q: What about the Cmax [3] of the same compound?
A: The Cmax was 478 ng/mL.

Q: With `Cc1cnccc1-c1cccc(C(C)(C)N(CCCC(=O)NCC(N)=O)S(=O)(=O)c2cccc(Cl)c2C)c1` [Compound 21AC, N-(2-amino-2-oxoethyl)-4-(3-chloro-2-methyl-N-(2-(3-(3-methylpyridin-4-yl)phenyl)propan-2-yl)phenylsulfonamido)butanamide] as the compound, how does the EC50 (human TGR5 receptor) read?
A: Its EC50 is < 100 nM.

Q: What about the EC50 (mouse TGR5 receptor [2]) of the same compound?
A: The EC50 was < 100 nM.

Q: What about the Cmax [3] of the same compound?
A: The Cmax was 269 ng/mL.

Q: With `Cc1cnccc1-c1cccc([C@H](C)N(CCCC(=O)NCCS(=O)(=O)O)S(=O)(=O)c2cccc(Cl)c2C)c1` [Compound 21AG, (S)-2-(4-(3-chloro-2-methyl-N-(1-(3-(3-methylpyridin-4-yl)phenyl)ethyl)phenylsulfonamido)butanamido)ethanesulfonic acid] as the compound, how does the EC50 (human TGR5 receptor) read?
A: The EC50 was < 100 nM.

Q: And the EC50 (mouse TGR5 receptor [2])?
A: The EC50 was < 100 nM.

Q: What about the Cmax [3] of the same compound?
A: Its Cmax is 14.3 ng/mL.

Q: Which EC50 (human TGR5 receptor) does the source give for `Cc1cnccc1-c1cccc(C(C)(C)N(CCCN/C(=N\C#N)NCCC(=O)O)S(=O)(=O)c2cccc(Cl)c2C)c1` [Compound 25, (E)-3-(3-(3-((3-chloro-2-methyl-N-(2-(3-(3-methylpyridin-4-yl)phenyl)propan-2-yl)phenyl)sulfonamido)propyl)-2-cyanoguanidino)propanoic acid] here?
A: The EC50 was < 100 nM.

Q: And the EC50 (mouse TGR5 receptor [2])?
A: Its EC50 is < 100 nM.

Q: What about the Cmax [3] of the same compound?
A: The Cmax was 3.1 ng/mL.
